Measured values from ChEMBL document CHEMBL6134768, “Design, synthesis, and structure-activity relationship studies of 6H-benzo[b]indeno[1,2-d]thiophen-6-one derivatives as DYRK1A/CLK1/CLK4/haspin inhibitors” (RSC Med Chem, 2025).

Assays:
[1] = Metabolic stability in rat liver microsomes assessed as degradation; assay type: ADME, Microsome; details: read-out: Drug degradation
[2] = biological target: Dual specificity tyrosine-phosphorylation-regulated kinase 1B (Homo sapiens) (UniProt Q9Y463); experiment: Inhibition of human GST-tagged DYRK1B extracted from Escherichia coli assessed as residual activity using gamma-32 ATP and KKISGRLSPIMTEQ as substrate at 1 uM by radiometric kinase assay relative to control
cells = details: Homo sapiens, U373 MG, 72 h
U-87 MG = experiment: cells; details: Homo sapiens, 72 h
[3] = rat, microsomes
[4] = biological target: Dual specificity protein kinase CLK3 (Homo sapiens) (UniProt P49761); experiment: Inhibition of CLK3 (unknown origin) at 0.35 uM by Z-LYTE kinase activity assay relative to control
[5] = biological target: Serine/threonine-protein kinase 33 (Homo sapiens) (UniProt Q9BYT3); experiment: Inhibition of STK33 (unknown origin) at 0.35 uM by LanthaScreen kinase binding assay relative to control
[6] = biological target: T1, Dual specificity protein kinase CLK4 (Homo sapiens, UniProt Q9HAZ1); experiment: Inhibition of CLK4 (unknown origin) by LanthaScreen kinase binding assay relative to control
Target sequence in this assay (Q9HAZ1 whole entry): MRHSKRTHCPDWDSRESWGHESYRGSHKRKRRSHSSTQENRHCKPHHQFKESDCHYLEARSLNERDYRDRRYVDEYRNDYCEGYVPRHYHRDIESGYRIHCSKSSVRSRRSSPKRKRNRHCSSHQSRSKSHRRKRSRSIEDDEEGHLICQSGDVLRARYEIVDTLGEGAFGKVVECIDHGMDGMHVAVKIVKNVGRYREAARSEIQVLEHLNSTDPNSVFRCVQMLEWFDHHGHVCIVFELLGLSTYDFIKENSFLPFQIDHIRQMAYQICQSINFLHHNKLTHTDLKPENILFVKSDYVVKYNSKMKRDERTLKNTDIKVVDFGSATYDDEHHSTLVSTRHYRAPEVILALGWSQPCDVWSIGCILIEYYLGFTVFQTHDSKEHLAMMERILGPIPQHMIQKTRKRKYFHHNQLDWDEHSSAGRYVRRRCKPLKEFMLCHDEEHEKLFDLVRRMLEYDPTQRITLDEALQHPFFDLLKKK

[7] = biological target: T2, Serine/threonine-protein kinase 17A (Homo sapiens) (UniProt Q9UEE5); experiment: Inhibition of STK17A (DRAK1) (unknown origin) at 0.35 uM by LanthaScreen kinase binding assay relative to control
T2 sequence (whole entry): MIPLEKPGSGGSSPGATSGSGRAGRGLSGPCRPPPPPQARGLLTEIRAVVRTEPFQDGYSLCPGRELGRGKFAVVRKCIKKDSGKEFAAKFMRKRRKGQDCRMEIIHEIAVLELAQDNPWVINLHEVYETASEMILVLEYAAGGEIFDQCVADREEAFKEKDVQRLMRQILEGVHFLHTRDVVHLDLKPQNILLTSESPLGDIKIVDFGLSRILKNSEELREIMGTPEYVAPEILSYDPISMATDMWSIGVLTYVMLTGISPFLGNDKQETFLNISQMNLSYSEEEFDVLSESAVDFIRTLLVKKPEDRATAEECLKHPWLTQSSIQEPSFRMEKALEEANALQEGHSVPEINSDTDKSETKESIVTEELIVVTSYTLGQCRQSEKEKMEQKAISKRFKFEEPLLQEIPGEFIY

[8] = biological target: T3, Serine/threonine-protein kinase haspin (Homo sapiens, UniProt Q8TF76); experiment: Inhibition of GSG2 (haspin) (unknown origin) by Adapta kinase activity assay relative to control
T3 sequence (Q8TF76 whole entry): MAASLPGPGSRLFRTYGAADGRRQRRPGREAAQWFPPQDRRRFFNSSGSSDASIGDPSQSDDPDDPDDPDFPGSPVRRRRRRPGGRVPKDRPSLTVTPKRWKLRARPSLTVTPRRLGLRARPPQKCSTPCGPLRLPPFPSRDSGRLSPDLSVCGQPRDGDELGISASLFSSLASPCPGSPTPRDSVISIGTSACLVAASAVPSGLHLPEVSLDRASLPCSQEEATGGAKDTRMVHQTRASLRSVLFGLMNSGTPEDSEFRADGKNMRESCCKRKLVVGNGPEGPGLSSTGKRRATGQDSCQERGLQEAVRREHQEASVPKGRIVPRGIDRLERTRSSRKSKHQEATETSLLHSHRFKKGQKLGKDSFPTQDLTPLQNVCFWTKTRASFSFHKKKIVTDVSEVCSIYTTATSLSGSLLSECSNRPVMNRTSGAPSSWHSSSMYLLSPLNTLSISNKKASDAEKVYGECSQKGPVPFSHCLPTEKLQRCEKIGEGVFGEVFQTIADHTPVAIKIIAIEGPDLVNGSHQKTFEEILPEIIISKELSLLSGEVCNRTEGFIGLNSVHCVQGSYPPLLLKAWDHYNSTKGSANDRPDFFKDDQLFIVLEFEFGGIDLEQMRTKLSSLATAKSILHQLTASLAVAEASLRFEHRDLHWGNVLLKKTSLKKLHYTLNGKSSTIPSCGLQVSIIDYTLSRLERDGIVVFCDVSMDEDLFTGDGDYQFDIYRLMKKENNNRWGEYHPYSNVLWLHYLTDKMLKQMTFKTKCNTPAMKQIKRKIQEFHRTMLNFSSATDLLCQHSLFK

[9] = biological target: T1, Dual specificity protein kinase CLK4; experiment: Inhibition of CLK4 (unknown origin) by radiometric assay relative to control
Target sequence in this assay (Q9HAZ1 whole entry): as the sequence (Q9HAZ1 whole entry) above

[10] = biological target: T3, Serine/threonine-protein kinase haspin; experiment: Inhibition of GSG2 (haspin) (unknown origin) by radiometric assay relative to control
[11] = biological target: Homeodomain-interacting protein kinase 1 (Homo sapiens) (UniProt Q86Z02); experiment: Inhibition of HIPK1 (Myak) (unknown origin) at 0.35 uM by Z-LYTE kinase activity assay relative to control
[12] = biological target: Dual specificity tyrosine-phosphorylation-regulated kinase 1B (Homo sapiens) (UniProt Q9Y463); experiment: Inhibition of DYRK1B (unknown origin) at 0.35 uM by radiometric assay relative to control
[13] = biological target: T4, Dual specificity tyrosine-phosphorylation-regulated kinase 2 (Homo sapiens) (UniProt Q92630); experiment: Inhibition of DYRK2 (unknown origin) at 0.35 uM by LanthaScreen kinase binding assay relative to control
T4 sequence (whole entry): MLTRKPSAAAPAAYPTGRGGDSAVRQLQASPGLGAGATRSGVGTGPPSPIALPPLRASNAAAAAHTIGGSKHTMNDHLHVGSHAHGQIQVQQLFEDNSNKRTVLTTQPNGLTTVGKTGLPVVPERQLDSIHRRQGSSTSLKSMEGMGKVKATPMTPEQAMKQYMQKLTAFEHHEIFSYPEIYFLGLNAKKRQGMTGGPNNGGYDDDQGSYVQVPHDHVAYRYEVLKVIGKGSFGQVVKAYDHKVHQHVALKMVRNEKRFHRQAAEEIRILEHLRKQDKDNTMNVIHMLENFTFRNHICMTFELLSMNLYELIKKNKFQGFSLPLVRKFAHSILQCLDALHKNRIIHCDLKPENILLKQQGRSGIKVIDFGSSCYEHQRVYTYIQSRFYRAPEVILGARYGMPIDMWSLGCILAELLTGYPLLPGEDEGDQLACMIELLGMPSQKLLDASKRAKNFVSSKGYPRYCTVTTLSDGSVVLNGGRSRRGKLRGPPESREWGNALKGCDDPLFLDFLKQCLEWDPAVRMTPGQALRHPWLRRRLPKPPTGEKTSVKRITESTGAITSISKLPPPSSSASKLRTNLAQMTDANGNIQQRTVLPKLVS

[14] = biological target: T5, Serine/threonine-protein kinase haspin (Homo sapiens) (UniProt Q8TF76); experiment: Inhibition of GSG2 (haspin) (unknown origin) at 0.35 uM by Adapta kinase activity assay relative to control
T5 sequence (whole entry): T3 sequence (Q8TF76 whole entry)

[15] = biological target: SRSF protein kinase 1 (Homo sapiens) (UniProt Q96SB4); experiment: Inhibition of SRPK1 (unknown origin) at 0.35 uM by Z-LYTE kinase activity assay relative to control
[16] = biological target: Dual specificity protein kinase CLK1 (Homo sapiens) (UniProt P49759); experiment: Inhibition of CLK1 (unknown origin) at 0.35 uM by Z-LYTE kinase activity assay relative to control
[17] = biological target: Dual specificity protein kinase CLK1 (Homo sapiens) (UniProt P49759); experiment: Inhibition of CLK1 (unknown origin) at 0.35 uM by radiometric assay relative to control
[18] = biological target: SRSF protein kinase 2 (Homo sapiens) (UniProt P78362); experiment: Inhibition of SRPK2 (unknown origin) at 0.35 uM by Z-LYTE kinase activity assay relative to control
[19] = biological target: Epidermal growth factor receptor (Homo sapiens) (UniProt P00533); experiment: Inhibition of EGFR (ErbB1) (unknown origin) at 0.35 uM by Z-LYTE kinase activity assay relative to control
[20] = biological target: Serine/threonine-protein kinase pim-1 (Homo sapiens) (UniProt P11309); experiment: Inhibition of PIM1 (unknown origin) at 0.35 uM by Z-LYTE kinase activity assay relative to control
[21] = biological target: Myosin light chain kinase 2, skeletal/cardiac muscle (Homo sapiens) (UniProt Q9H1R3); experiment: Inhibition of MLCK2 (unknown origin) at 0.35 uM by LanthaScreen kinase binding assay relative to control
[22] = biological target: T1, Dual specificity protein kinase CLK4; experiment: Inhibition of CLK4 (unknown origin) at 0.35 uM by LanthaScreen kinase binding assay relative to control
Target sequence in this assay (Q9HAZ1 whole entry, looked up): as the sequence (Q9HAZ1 whole entry) above

[23] = biological target: BDNF/NT-3 growth factors receptor (Homo sapiens) (UniProt Q16620); experiment: Inhibition of NTRK2 (TRKB) (unknown origin) at 0.35 uM by Z-LYTE kinase activity assay relative to control
[24] = biological target: Dual specificity tyrosine-phosphorylation-regulated kinase 1B (Homo sapiens) (UniProt Q9Y463); experiment: Inhibition of DYRK1B (unknown origin) at 0.35 uM by Z-LYTE kinase activity assay relative to control
[25] = biological target: T6, Dual specificity tyrosine-phosphorylation-regulated kinase 3 (Homo sapiens) (UniProt O43781); experiment: Inhibition of DYRK3 (unknown origin) at 0.35 uM by Z-LYTE kinase activity assay relative to control
T6 sequence (whole entry): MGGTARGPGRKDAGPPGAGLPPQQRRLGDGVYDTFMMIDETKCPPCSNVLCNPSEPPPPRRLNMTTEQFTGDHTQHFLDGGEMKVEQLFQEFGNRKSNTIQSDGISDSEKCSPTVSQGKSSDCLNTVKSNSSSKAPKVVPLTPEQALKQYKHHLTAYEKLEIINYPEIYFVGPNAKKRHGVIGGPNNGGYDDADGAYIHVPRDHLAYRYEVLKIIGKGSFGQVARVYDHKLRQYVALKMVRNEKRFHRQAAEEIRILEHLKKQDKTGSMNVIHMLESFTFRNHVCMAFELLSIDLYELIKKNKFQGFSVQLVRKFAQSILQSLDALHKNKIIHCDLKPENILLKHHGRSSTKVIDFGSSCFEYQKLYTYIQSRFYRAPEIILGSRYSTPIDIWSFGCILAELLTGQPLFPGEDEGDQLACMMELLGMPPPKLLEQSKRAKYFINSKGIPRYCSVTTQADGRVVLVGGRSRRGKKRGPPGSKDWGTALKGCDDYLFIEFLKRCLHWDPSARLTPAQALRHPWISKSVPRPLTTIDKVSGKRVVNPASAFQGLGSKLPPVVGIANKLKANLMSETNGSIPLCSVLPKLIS

[26] = biological target: T5, Serine/threonine-protein kinase haspin (Homo sapiens); experiment: Inhibition of GSG2 (haspin) (unknown origin) at 0.35 uM by radiometric assay relative to control
[27] = biological target: T1, Dual specificity protein kinase CLK4; experiment: Inhibition of CLK4 (unknown origin) at 0.35 uM by radiometric assay relative to control
Target sequence in this assay (Q9HAZ1 whole entry, looked up): as the sequence (Q9HAZ1 whole entry) above

[28] = biological target: Cyclin-dependent kinase 5/CDK5 activator 1 (Homo sapiens) (UniProt Q00535+Q15078); experiment: Inhibition of CDK5/p25 (unknown origin) at 0.35 uM by Z-LYTE kinase activity assay relative to control; assay type: protein-complex assay
[29] = Metabolic stability in rat liver microsomes assessed as half life; assay type: ADME, Microsome

Sequence of Dual specificity tyrosine-phosphorylation-regulated kinase 1B (Homo sapiens) (Q9Y463 whole entry, looked up): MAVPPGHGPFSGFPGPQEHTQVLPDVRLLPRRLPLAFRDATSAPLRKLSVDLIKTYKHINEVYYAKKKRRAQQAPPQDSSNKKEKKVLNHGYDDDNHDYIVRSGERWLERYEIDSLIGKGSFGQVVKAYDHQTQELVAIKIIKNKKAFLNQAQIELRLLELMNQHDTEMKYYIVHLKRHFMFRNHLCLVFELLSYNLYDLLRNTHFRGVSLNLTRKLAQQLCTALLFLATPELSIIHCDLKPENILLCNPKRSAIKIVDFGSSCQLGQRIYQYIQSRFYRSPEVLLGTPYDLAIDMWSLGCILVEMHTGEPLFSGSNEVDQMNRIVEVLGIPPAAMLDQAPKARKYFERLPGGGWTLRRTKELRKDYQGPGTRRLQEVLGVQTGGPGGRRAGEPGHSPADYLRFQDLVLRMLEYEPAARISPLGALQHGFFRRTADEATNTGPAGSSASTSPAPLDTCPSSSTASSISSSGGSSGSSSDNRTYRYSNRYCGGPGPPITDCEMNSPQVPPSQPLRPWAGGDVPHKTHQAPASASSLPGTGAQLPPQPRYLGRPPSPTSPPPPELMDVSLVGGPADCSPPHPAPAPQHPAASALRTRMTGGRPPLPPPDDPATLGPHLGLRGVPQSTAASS
Sequence of Dual specificity protein kinase CLK1 (Homo sapiens) (P49759 whole entry, looked up): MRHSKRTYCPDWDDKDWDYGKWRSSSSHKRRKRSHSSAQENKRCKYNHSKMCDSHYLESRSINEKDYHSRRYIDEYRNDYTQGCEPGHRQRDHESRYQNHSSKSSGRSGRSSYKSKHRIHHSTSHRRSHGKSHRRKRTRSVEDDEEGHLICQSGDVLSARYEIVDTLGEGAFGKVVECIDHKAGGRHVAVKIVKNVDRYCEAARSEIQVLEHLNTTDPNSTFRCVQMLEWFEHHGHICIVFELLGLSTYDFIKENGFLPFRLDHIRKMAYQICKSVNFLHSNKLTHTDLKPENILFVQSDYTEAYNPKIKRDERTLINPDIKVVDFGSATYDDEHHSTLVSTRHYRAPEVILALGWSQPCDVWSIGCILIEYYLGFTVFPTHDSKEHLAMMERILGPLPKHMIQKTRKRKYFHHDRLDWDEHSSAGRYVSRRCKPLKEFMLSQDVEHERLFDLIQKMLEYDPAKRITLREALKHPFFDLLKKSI
Sequence of SRSF protein kinase 2 (Homo sapiens) (P78362 whole entry, looked up): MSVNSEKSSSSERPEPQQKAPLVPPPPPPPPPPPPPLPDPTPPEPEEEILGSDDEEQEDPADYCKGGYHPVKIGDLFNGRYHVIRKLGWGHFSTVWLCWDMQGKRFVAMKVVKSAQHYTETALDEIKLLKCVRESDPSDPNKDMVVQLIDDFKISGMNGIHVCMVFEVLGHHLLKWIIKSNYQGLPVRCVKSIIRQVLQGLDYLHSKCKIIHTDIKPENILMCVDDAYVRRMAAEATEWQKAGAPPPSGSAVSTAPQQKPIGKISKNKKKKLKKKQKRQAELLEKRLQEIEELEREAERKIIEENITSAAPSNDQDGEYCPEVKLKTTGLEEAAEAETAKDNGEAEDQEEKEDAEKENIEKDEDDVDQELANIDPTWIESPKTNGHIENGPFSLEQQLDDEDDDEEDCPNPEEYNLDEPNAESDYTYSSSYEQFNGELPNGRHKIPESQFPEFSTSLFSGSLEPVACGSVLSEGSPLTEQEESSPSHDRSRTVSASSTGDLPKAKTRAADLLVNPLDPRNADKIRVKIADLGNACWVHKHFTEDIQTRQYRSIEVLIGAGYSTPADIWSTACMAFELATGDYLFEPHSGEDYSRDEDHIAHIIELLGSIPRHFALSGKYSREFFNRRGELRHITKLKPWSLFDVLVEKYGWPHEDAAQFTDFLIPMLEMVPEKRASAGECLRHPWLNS
Sequence of Serine/threonine-protein kinase 33 (Homo sapiens) (Q9BYT3 whole entry, looked up): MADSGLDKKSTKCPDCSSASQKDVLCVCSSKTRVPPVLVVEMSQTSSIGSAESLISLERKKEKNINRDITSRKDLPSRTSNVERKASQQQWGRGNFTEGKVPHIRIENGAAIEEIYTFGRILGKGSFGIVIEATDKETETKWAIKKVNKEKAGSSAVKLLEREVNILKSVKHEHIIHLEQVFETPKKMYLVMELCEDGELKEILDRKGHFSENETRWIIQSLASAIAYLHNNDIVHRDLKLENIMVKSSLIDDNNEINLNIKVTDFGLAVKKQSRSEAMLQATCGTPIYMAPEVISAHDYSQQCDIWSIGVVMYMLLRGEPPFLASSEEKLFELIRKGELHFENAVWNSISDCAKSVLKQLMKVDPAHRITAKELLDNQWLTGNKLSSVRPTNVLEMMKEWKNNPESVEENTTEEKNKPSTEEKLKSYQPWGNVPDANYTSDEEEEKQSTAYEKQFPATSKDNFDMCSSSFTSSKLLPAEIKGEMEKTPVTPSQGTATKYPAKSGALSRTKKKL
Sequence of Myosin light chain kinase 2, skeletal/cardiac muscle (Homo sapiens) (Q9H1R3 whole entry): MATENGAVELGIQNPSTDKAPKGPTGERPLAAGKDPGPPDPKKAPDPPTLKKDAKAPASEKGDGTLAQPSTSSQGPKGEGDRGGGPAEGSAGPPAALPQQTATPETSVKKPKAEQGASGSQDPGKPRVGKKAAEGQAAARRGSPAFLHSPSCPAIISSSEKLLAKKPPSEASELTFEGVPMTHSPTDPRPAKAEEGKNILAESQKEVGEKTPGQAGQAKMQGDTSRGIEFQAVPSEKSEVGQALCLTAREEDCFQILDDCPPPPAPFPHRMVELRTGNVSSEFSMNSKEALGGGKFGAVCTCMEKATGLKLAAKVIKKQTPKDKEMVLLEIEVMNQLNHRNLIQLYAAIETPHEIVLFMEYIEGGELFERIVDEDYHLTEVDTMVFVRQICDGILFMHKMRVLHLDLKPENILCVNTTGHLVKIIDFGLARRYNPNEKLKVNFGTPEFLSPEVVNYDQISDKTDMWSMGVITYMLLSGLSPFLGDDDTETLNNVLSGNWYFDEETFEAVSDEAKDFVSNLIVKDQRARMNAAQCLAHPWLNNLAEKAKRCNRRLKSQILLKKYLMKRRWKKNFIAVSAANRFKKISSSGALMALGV
Sequence of SRSF protein kinase 1 (Homo sapiens) (Q96SB4 whole entry): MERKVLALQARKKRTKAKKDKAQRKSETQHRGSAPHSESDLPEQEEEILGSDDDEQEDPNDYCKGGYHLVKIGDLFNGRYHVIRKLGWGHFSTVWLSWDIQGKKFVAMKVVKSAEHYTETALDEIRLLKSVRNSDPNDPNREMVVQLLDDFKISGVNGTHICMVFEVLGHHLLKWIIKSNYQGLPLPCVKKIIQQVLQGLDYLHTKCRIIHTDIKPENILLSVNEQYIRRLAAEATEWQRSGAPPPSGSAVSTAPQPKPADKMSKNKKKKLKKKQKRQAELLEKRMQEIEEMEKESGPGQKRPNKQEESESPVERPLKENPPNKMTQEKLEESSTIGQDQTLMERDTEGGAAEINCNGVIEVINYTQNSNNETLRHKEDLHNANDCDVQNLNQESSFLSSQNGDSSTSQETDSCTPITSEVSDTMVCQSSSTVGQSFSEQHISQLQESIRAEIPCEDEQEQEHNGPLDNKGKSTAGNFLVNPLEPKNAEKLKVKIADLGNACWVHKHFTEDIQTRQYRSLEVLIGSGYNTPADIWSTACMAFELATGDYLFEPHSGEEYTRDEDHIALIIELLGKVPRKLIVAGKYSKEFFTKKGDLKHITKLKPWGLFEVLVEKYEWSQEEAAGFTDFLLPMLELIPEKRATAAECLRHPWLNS
Sequence of Serine/threonine-protein kinase pim-1 (Homo sapiens) (P11309 whole entry, looked up): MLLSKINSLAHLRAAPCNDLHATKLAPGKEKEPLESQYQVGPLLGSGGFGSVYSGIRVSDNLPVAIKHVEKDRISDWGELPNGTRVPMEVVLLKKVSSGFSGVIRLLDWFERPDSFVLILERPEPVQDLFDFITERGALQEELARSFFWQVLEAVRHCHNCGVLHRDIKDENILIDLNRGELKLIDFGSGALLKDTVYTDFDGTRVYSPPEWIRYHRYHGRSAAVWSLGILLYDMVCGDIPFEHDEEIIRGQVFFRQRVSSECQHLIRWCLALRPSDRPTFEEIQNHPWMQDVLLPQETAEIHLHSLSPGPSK

COc1ccc2c(c1)-c1c(sc3ccc(O)cc13)C2=O
metabolised [1]: 50% | Activity [2]: 89%

O=C1c2ccccc2-c2c1sc1ccc(O)cc21
IC50 (cells): > 100000 nM | Activity ([2]; INHIBITOR): < 5% | IC50 (U-87 MG): > 100000 nM

COc1ccc2c(c1)-c1c(sc3ccc(OC)cc13)C2=O
CLH [3]: 92.4 µL/min/mg | Activity ([2]; INHIBITOR): < 5%

COc1cccc2c1C(=O)c1sc3ccc(O)cc3c1-2
Activity [2]: 78%

COc1ccc2c(c1)C(=O)c1sc3ccc(O)cc3c1-2
inhibition [4]: 7% | inhibition [5]: 8% | IC50 [6]: 14 nM | inhibition [7]: 42% | IC50 [8]: 28 nM | IC50 [9]: 26 nM | IC50 [10]: 76 nM | inhibition [11]: 0% | inhibition [12]: 47% | inhibition [13]: 66% | inhibition [14]: 95% | inhibition [15]: 6% | inhibition [16]: 16% | inhibition [17]: 93% | inhibition [18]: 0% | inhibition [19]: 0% | Activity [2]: 93% | inhibition [20]: 0% | inhibition [21]: 15% | inhibition [22]: 95% | IC50 (U-87 MG): 45900 nM | inhibition [23]: 0% | inhibition [24]: 57% | inhibition [25]: 5% | inhibition [26]: 88% | inhibition [27]: 91% | inhibition [28]: 8%

COc1cccc2c1-c1c(sc3ccccc13)C2=O
t1/2 [29]: 6.5 min | CLH [3]: 355.5 µL/min/mg | Activity ([2]; INHIBITOR): < 5%

COc1ccc2c(c1)-c1c(sc3ccccc13)C2=O
t1/2 [29]: 33.7 min | CLH [3]: 68.8 µL/min/mg | Activity ([2]; INHIBITOR): < 5%

COc1ccc2c(c1)C(=O)c1sc3ccc(F)cc3c1-2
t1/2 [29]: 16.8 min | CLH [3]: 93.9 µL/min/mg | Activity [2]: 78% | Activity ([2]; INHIBITOR): < 5%

COc1ccc2sc3c(c2c1)-c1ccccc1C3=O
Activity ([2]; INHIBITOR): 7%

COc1ccc2c(c1)C(=O)c1sc3ccc(OC)cc3c1-2
t1/2 [29]: 18.9 min | CLH [3]: 122 µL/min/mg | Activity ([2]; INHIBITOR): < 5%

COc1ccc2c(c1)C(=O)c1sc3ccccc3c1-2
t1/2 [29]: 24.4 min | CLH [3]: 94.8 µL/min/mg | Activity ([2]; INHIBITOR): < 5%

COc1cccc2c1C(=O)c1sc3ccccc3c1-2
t1/2 [29]: < 5 min | CLH [3]: > 500 µL/min/mg | Activity ([2]; INHIBITOR): < 5%

COc1ccc2sc3c(c2c1)-c1c(OC)cccc1C3=O
t1/2 [29]: < 5 min | CLH [3]: > 500 µL/min/mg | Activity [2]: 68%
